Values quoted from earlier work, collected in patent US20160000075A1, “USE OF PYRIMIDINES IN STIMULATION OF PLANT GROWTH AND DEVELOPMENT AND ENHANCEMENT OF STRESS TOLERANCE” (ULUDAG ÜNIVERSITESI TEKNOLOJI TRANSFER OFISI TICARET VE …, priority 2013, published 2016).

Columns and labels:
[1] = humans
[2] = system: hypoxic ischemic brain damage; conditions: infant rats exposed to hypoxic ischemic brain damage
[3] = system: learning and memory functions; conditions: experimental animals, also environmentally impoverished animals
cellular regeneration = conditions: compared to only using auxin in culture medium
tomato = conditions: 4 mM concentration
[4] = system: plant species such as Arabidopsis thaliana, Solanum tuberosum, Fragaria×ananassa, Medicago sativa, Triticum aestivum, Zea mays; conditions: external administration
cabbage = conditions: external administration
clover = conditions: external administration
[5] = system: brain lesion, rotational behaviour; conditions: uridine administered in the form of UMP
[6] = system: hypoxic and ischemic brain injuries; conditions: animal experiments and some clinical studies

In the case of O=c1ccn([C@@H]2O[C@H](CO)[C@@H](O)[C@H]2O)c(=O)[nH]1 [uridine], the “adverse effect of intravenous dose” value ([1]; intravenously, 10 g/m^2) is listed as “cause shaking”, the “adverse effect of high oral dosage” value ([1]; oral, 10 g per day) is listed as “causes diarrhea” and the “level of brain damage” value [2] is listed as “significantly reduced the level of damage”. The “growth and branching of neurons” value (neurons in the culture) was “increases the growth and branching of these cells”, the “learning and memory functions” value [3] was “increase learning and memory functions” and the cellular regeneration (cellular regeneration) was “increases cellular regeneration”.
For NCCCCNCCCN [spermidine], the high temperature tolerance (tomato) is listed as “increase high temperature tolerance”.
For C[N+](C)(C)CC(=O)O [GlyBet, glycine betain], the “low temperature stress tolerance” value [4] is given as “increase low temperature stress tolerance”, the tolerance against frost (cabbage) is given as “increases tolerance against frost” and the tolerance against frost (clover) is given as “increases tolerance against frost”.
For O=c1ccn([C@@H]2O[C@H](COP(=O)(O)O)[C@@H](O)[C@H]2O)c(=O)[nH]1 [UMP, uridine-5′-monophosphate], the “brain lesion and rotational behaviour” value [5] is given as “ameliorated brain lesion and reduced rotational behaviour”.
For C[N+](C)(C)CCOP(=O)(O)OP(=O)([O-])OC[C@H]1O[C@@H](n2ccc(N)nc2=O)[C@H](O)[C@@H]1O [CDP-choline, cytidine-5′-diphosphate choline], the “damage in hypoxic and ischemic brain injuries” value [6] is listed as “reduces damage in hypoxic and ischemic brain injuries”.
